Data taken from the NIST ThermoML archive (doi:10.1016/j.jct.2012.03.031).
± gives the expanded uncertainty stated by the source.

Test: molar heat capacity at constant pressure
Conditions: 101.33 kPa

CCCCc1ccc(C(=O)Oc2ccc(C#N)c(F)c2)cc1 [4-cyano-3-fluorophenyl 4-butylbenzoate]
Conditions	molar heat capacity at constant pressure [J/K/mol]
221.07 K, Crystal 2, Small (less than 1 g) adiabatic calorimetry	311.55 ± 2.1
221.65 K, Crystal 1, Small (less than 1 g) adiabatic calorimetry	297.64 ± 2
222.84 K, Crystal 1, Small (less than 1 g) adiabatic calorimetry	299.23 ± 2.1
223.8 K, Crystal 2, Small (less than 1 g) adiabatic calorimetry	314.36 ± 2.2
223.83 K, Crystal 1, Small (less than 1 g) adiabatic calorimetry	300.59 ± 2.1
224.03 K, Crystal 1, Small (less than 1 g) adiabatic calorimetry	300.76 ± 2.1
225.22 K, Crystal 1, Small (less than 1 g) adiabatic calorimetry	302.28 ± 2.1
226.41 K, Crystal 1, Small (less than 1 g) adiabatic calorimetry	303.96 ± 2.1
226.54 K, Crystal 2, Small (less than 1 g) adiabatic calorimetry	317.16 ± 2.2
226.65 K, Crystal 1, Small (less than 1 g) adiabatic calorimetry	304.49 ± 2.1
227.59 K, Crystal 1, Small (less than 1 g) adiabatic calorimetry	305.68 ± 2.1
228.77 K, Crystal 1, Small (less than 1 g) adiabatic calorimetry	307.52 ± 2.1
229.29 K, Crystal 2, Small (less than 1 g) adiabatic calorimetry	320.04 ± 2.2
229.47 K, Crystal 1, Small (less than 1 g) adiabatic calorimetry	308.62 ± 2.1
229.94 K, Crystal 1, Small (less than 1 g) adiabatic calorimetry	309.12 ± 2.1
230 K, Crystal 1, Vacuum adiabatic calorimetry	309.39 ± 1.9
230 K, Crystal 2, Vacuum adiabatic calorimetry	320.68 ± 2
231.12 K, Crystal 1, Small (less than 1 g) adiabatic calorimetry	310.59 ± 2.1
232.06 K, Crystal 2, Small (less than 1 g) adiabatic calorimetry	322.55 ± 2.2
232.28 K, Crystal 1, Small (less than 1 g) adiabatic calorimetry	312.29 ± 2.1
232.3 K, Crystal 1, Small (less than 1 g) adiabatic calorimetry	312.7 ± 2.2
233.45 K, Crystal 1, Small (less than 1 g) adiabatic calorimetry	313.85 ± 2.2
234.61 K, Crystal 1, Small (less than 1 g) adiabatic calorimetry	315.48 ± 2.2
234.84 K, Crystal 2, Small (less than 1 g) adiabatic calorimetry	325.57 ± 2.2
235.14 K, Crystal 1, Small (less than 1 g) adiabatic calorimetry	316.89 ± 2.2
235.77 K, Crystal 1, Small (less than 1 g) adiabatic calorimetry	317.02 ± 2.2
236.93 K, Crystal 1, Small (less than 1 g) adiabatic calorimetry	318.75 ± 2.2
237.63 K, Crystal 2, Small (less than 1 g) adiabatic calorimetry	328.79 ± 2.3
238.05 K, Crystal 1, Small (less than 1 g) adiabatic calorimetry	321.4 ± 2.2
238.08 K, Crystal 1, Small (less than 1 g) adiabatic calorimetry	320.42 ± 2.2
239.23 K, Crystal 1, Small (less than 1 g) adiabatic calorimetry	322.04 ± 2.2
240 K, Crystal 1, Vacuum adiabatic calorimetry	324.53 ± 2
240 K, Crystal 2, Vacuum adiabatic calorimetry	332.29 ± 2
240.38 K, Crystal 1, Small (less than 1 g) adiabatic calorimetry	323.67 ± 2.2
240.43 K, Crystal 2, Small (less than 1 g) adiabatic calorimetry	332.92 ± 2.3
241.04 K, Crystal 1, Small (less than 1 g) adiabatic calorimetry	326.21 ± 2.2
241.52 K, Crystal 1, Small (less than 1 g) adiabatic calorimetry	325.48 ± 2.2
242.66 K, Crystal 1, Small (less than 1 g) adiabatic calorimetry	327.48 ± 2.2
243.24 K, Crystal 2, Small (less than 1 g) adiabatic calorimetry	336.05 ± 2.3
243.8 K, Crystal 1, Small (less than 1 g) adiabatic calorimetry	328.63 ± 2.3
244.07 K, Crystal 1, Small (less than 1 g) adiabatic calorimetry	330.21 ± 2.3
246.07 K, Crystal 1, Small (less than 1 g) adiabatic calorimetry	331.47 ± 2.3
247.13 K, Crystal 1, Small (less than 1 g) adiabatic calorimetry	334.86 ± 2.3
247.2 K, Crystal 1, Small (less than 1 g) adiabatic calorimetry	333.06 ± 2.3
248.33 K, Crystal 1, Small (less than 1 g) adiabatic calorimetry	334.82 ± 2.3
249.45 K, Crystal 1, Small (less than 1 g) adiabatic calorimetry	336.63 ± 2.4
250 K, Crystal 1, Vacuum adiabatic calorimetry	339.52 ± 2.1
250.22 K, Crystal 1, Small (less than 1 g) adiabatic calorimetry	339.88 ± 2.3
250.57 K, Crystal 1, Small (less than 1 g) adiabatic calorimetry	338.23 ± 2.3
251.69 K, Crystal 1, Small (less than 1 g) adiabatic calorimetry	339.75 ± 2.3
252.81 K, Crystal 1, Small (less than 1 g) adiabatic calorimetry	341.78 ± 2.4
253.35 K, Crystal 1, Small (less than 1 g) adiabatic calorimetry	344.81 ± 2.4
253.92 K, Crystal 1, Small (less than 1 g) adiabatic calorimetry	343.44 ± 2.4
255.03 K, Crystal 1, Small (less than 1 g) adiabatic calorimetry	345.42 ± 2.4
256.14 K, Crystal 1, Small (less than 1 g) adiabatic calorimetry	347.42 ± 2.4
256.51 K, Crystal 1, Small (less than 1 g) adiabatic calorimetry	349.77 ± 2.4
257.24 K, Crystal 1, Small (less than 1 g) adiabatic calorimetry	349.12 ± 2.4
258.34 K, Crystal 1, Small (less than 1 g) adiabatic calorimetry	350.75 ± 2.4
259.44 K, Crystal 1, Small (less than 1 g) adiabatic calorimetry	352.9 ± 2.4
259.7 K, Crystal 1, Small (less than 1 g) adiabatic calorimetry	354.86 ± 2.5
260 K, Crystal 1, Vacuum adiabatic calorimetry	355.31 ± 2.2
260.54 K, Crystal 1, Small (less than 1 g) adiabatic calorimetry	354.79 ± 2.4
261.63 K, Crystal 1, Small (less than 1 g) adiabatic calorimetry	356.59 ± 2.5
262.72 K, Crystal 1, Small (less than 1 g) adiabatic calorimetry	358.59 ± 2.5
262.92 K, Crystal 1, Small (less than 1 g) adiabatic calorimetry	359.67 ± 2.5
263.8 K, Crystal 1, Small (less than 1 g) adiabatic calorimetry	360.46 ± 2.5
264.89 K, Crystal 1, Small (less than 1 g) adiabatic calorimetry	362.63 ± 2.5
265.96 K, Crystal 1, Small (less than 1 g) adiabatic calorimetry	364.99 ± 2.5
266.18 K, Crystal 1, Small (less than 1 g) adiabatic calorimetry	364.4 ± 2.5
267.04 K, Crystal 1, Small (less than 1 g) adiabatic calorimetry	367.18 ± 2.5
268.11 K, Crystal 1, Small (less than 1 g) adiabatic calorimetry	369.24 ± 2.5
269.18 K, Crystal 1, Small (less than 1 g) adiabatic calorimetry	371.72 ± 2.6
269.46 K, Crystal 1, Small (less than 1 g) adiabatic calorimetry	369.89 ± 2.5
270 K, Crystal 1, Vacuum adiabatic calorimetry	371.52 ± 2.3
270.25 K, Crystal 1, Small (less than 1 g) adiabatic calorimetry	373.77 ± 2.6
271.31 K, Crystal 1, Small (less than 1 g) adiabatic calorimetry	375.16 ± 2.6
272.37 K, Crystal 1, Small (less than 1 g) adiabatic calorimetry	378.43 ± 2.6
272.76 K, Crystal 1, Small (less than 1 g) adiabatic calorimetry	379.8 ± 2.6
273.42 K, Crystal 1, Small (less than 1 g) adiabatic calorimetry	380.54 ± 2.6
274.47 K, Crystal 1, Small (less than 1 g) adiabatic calorimetry	383.84 ± 2.6
275.53 K, Crystal 1, Small (less than 1 g) adiabatic calorimetry	385.34 ± 2.7
276.08 K, Crystal 1, Small (less than 1 g) adiabatic calorimetry	388.45 ± 2.8
276.58 K, Crystal 1, Small (less than 1 g) adiabatic calorimetry	389.76 ± 2.7
277.62 K, Crystal 1, Small (less than 1 g) adiabatic calorimetry	392.5 ± 2.7
278.67 K, Crystal 1, Small (less than 1 g) adiabatic calorimetry	396.43 ± 2.8
279.42 K, Crystal 1, Small (less than 1 g) adiabatic calorimetry	397.42 ± 2.7
279.7 K, Crystal 1, Small (less than 1 g) adiabatic calorimetry	398.5 ± 2.8
280 K, Crystal 1, Vacuum adiabatic calorimetry	397.19 ± 2.5
281.47 K, Crystal 1, Small (less than 1 g) adiabatic calorimetry	402.8 ± 2.8
282.22 K, Crystal 1, Small (less than 1 g) adiabatic calorimetry	405.47 ± 2.9
282.99 K, Crystal 1, Small (less than 1 g) adiabatic calorimetry	408.97 ± 3
283.75 K, Crystal 1, Small (less than 1 g) adiabatic calorimetry	414.38 ± 3.3
284.5 K, Crystal 1, Small (less than 1 g) adiabatic calorimetry	422.32 ± 4.1
285.25 K, Crystal 1, Small (less than 1 g) adiabatic calorimetry	436.88 ± 7.6
285.98 K, Crystal 1, Small (less than 1 g) adiabatic calorimetry	474.25 ± 11

Liquid
Conditions	molar heat capacity at constant pressure [J/K/mol]
289.24 K, Small (less than 1 g) adiabatic calorimetry	479.05 ± 3.3
289.97 K, Small (less than 1 g) adiabatic calorimetry	476.93 ± 3.2
290 K, Vacuum adiabatic calorimetry	473.62 ± 2.9
290.7 K, Small (less than 1 g) adiabatic calorimetry	476.25 ± 3.2
291.67 K, Small (less than 1 g) adiabatic calorimetry	476.45 ± 3.2
291.8 K, Small (less than 1 g) adiabatic calorimetry	475.34 ± 3.2
293.12 K, Small (less than 1 g) adiabatic calorimetry	477.07 ± 3.2
294.48 K, Small (less than 1 g) adiabatic calorimetry	476.74 ± 3.2
295.04 K, Small (less than 1 g) adiabatic calorimetry	477.7 ± 3.2
297.17 K, Small (less than 1 g) adiabatic calorimetry	477.75 ± 3.3
297.43 K, Small (less than 1 g) adiabatic calorimetry	478.84 ± 3.4
298.15 K, Vacuum adiabatic calorimetry	478.16 ± 2.9
299.87 K, Small (less than 1 g) adiabatic calorimetry	478.89 ± 3.2
300 K, Vacuum adiabatic calorimetry	478.96 ± 2.9
302.6 K, Small (less than 1 g) adiabatic calorimetry	480.42 ± 3.2
305.34 K, Small (less than 1 g) adiabatic calorimetry	481.47 ± 3.3
308.1 K, Small (less than 1 g) adiabatic calorimetry	482.84 ± 3.3
310 K, Vacuum adiabatic calorimetry	483.98 ± 3
310.87 K, Small (less than 1 g) adiabatic calorimetry	484.5 ± 3.3
313.66 K, Small (less than 1 g) adiabatic calorimetry	486.08 ± 3.3
316.47 K, Small (less than 1 g) adiabatic calorimetry	487.53 ± 3.3
319.29 K, Small (less than 1 g) adiabatic calorimetry	489.61 ± 3.3
320 K, Vacuum adiabatic calorimetry	490.09 ± 3
322.13 K, Small (less than 1 g) adiabatic calorimetry	491.52 ± 3.3
324.98 K, Small (less than 1 g) adiabatic calorimetry	493.16 ± 3.3
327.85 K, Small (less than 1 g) adiabatic calorimetry	495.06 ± 3.4
330 K, Vacuum adiabatic calorimetry	496.49 ± 3
330.74 K, Small (less than 1 g) adiabatic calorimetry	496.98 ± 3.4
333.64 K, Small (less than 1 g) adiabatic calorimetry	498.96 ± 3.4
336.55 K, Small (less than 1 g) adiabatic calorimetry	500.86 ± 3.4
339.48 K, Small (less than 1 g) adiabatic calorimetry	502.59 ± 3.4
340 K, Vacuum adiabatic calorimetry	502.96 ± 3.1
342.43 K, Small (less than 1 g) adiabatic calorimetry	504.71 ± 3.4
345.39 K, Small (less than 1 g) adiabatic calorimetry	506.48 ± 3.4
348.36 K, Small (less than 1 g) adiabatic calorimetry	508.66 ± 3.4
350 K, Vacuum adiabatic calorimetry	509.84 ± 3.1
351.35 K, Small (less than 1 g) adiabatic calorimetry	510.81 ± 3.5
354.35 K, Small (less than 1 g) adiabatic calorimetry	513 ± 3.5
357.37 K, Small (less than 1 g) adiabatic calorimetry	514.97 ± 3.5
360.4 K, Small (less than 1 g) adiabatic calorimetry	517.24 ± 3.5
